Calls of active or inactive are those of the source. The rule behind the calls is not given here.
What was measured:
[1] = target: T1, Serine/threonine-protein kinase 24 (Homo sapiens, UniProt Q9Y6E0); test: Inhibition of MST3 (unknown origin) expressed in lysed HEK293T cells using NanoGlo as substrate incubated for 20 hrs by NanoBRET assay; type: cell-based
Target sequence in this assay (Q9Y6E0 whole entry): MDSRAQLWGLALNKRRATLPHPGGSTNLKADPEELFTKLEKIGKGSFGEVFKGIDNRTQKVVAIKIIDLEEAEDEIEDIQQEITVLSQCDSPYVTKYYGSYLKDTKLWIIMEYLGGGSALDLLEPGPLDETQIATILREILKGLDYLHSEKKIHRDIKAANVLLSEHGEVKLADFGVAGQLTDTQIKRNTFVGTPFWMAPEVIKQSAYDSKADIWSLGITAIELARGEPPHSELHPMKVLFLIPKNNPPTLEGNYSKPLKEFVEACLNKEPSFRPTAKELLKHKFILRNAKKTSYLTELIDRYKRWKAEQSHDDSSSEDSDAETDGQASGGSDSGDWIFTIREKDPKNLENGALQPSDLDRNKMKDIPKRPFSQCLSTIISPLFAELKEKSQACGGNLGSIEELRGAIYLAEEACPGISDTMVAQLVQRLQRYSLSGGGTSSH

[2] = target: Serine/threonine-protein kinase PAK 1 (Homo sapiens) (UniProt Q13153); test: Binding affinity to recombinant PAK1 (unknown origin) assessed as change in melting temperature by DSF analysis
Serine/threonine-protein kinase PAK 1 (Homo sapiens), sequence (Q13153 whole entry): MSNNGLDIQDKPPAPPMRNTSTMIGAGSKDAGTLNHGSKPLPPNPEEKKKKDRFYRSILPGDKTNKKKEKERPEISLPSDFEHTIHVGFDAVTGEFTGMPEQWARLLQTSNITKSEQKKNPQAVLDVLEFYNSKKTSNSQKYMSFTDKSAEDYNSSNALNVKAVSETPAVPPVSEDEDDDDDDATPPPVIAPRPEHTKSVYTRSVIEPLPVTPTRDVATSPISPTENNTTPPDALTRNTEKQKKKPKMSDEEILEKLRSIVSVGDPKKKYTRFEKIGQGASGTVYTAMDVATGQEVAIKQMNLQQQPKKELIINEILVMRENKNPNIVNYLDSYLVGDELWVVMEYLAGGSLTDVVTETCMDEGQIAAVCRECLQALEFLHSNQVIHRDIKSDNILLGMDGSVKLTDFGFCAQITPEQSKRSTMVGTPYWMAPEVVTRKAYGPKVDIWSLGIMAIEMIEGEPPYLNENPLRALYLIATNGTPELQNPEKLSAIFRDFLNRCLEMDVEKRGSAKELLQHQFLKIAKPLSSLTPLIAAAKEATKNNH

[3] = target: T1, Serine/threonine-protein kinase 24; test: Inhibition of MST3 (unknown origin) expressed in intact HEK293T cells using NanoGlo as substrate incubated for 20 hrs by NanoBRET assay; type: cell-based
Target sequence in this assay (Q9Y6E0 whole entry): as the sequence (Q9Y6E0 whole entry) above

[4] = target: T2, Serine/threonine-protein kinase 4 (Homo sapiens, UniProt Q13043); test: Inhibition of MST1 (unknown origin) expressed in HEK293T cells using NanoGlo as substrate incubated for 20 hrs by NanoBRET assay; type: cell-based
T2 sequence (Q13043 whole entry): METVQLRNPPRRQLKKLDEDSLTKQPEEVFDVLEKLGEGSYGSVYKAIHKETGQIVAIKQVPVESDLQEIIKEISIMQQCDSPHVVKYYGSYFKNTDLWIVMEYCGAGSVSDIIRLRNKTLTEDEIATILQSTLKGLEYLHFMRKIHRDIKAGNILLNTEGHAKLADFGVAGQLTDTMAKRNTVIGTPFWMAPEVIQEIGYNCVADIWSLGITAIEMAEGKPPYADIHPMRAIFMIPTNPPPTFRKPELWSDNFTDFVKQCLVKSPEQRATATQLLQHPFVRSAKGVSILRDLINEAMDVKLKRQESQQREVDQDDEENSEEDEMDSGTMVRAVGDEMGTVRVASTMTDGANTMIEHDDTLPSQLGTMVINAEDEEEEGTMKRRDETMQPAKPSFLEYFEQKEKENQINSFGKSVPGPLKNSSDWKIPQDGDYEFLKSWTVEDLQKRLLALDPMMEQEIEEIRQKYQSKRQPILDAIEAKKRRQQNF

[5] = target: Serine/threonine-protein kinase SIK2 (Homo sapiens, UniProt Q9H0K1); test: Inhibition of SIK2 (unknown origin) expressed in HEK293T cells using NanoGlo as substrate incubated for 20 hrs by NanoBRET assay; type: cell-based
Serine/threonine-protein kinase SIK2, sequence (Q9H0K1 whole entry): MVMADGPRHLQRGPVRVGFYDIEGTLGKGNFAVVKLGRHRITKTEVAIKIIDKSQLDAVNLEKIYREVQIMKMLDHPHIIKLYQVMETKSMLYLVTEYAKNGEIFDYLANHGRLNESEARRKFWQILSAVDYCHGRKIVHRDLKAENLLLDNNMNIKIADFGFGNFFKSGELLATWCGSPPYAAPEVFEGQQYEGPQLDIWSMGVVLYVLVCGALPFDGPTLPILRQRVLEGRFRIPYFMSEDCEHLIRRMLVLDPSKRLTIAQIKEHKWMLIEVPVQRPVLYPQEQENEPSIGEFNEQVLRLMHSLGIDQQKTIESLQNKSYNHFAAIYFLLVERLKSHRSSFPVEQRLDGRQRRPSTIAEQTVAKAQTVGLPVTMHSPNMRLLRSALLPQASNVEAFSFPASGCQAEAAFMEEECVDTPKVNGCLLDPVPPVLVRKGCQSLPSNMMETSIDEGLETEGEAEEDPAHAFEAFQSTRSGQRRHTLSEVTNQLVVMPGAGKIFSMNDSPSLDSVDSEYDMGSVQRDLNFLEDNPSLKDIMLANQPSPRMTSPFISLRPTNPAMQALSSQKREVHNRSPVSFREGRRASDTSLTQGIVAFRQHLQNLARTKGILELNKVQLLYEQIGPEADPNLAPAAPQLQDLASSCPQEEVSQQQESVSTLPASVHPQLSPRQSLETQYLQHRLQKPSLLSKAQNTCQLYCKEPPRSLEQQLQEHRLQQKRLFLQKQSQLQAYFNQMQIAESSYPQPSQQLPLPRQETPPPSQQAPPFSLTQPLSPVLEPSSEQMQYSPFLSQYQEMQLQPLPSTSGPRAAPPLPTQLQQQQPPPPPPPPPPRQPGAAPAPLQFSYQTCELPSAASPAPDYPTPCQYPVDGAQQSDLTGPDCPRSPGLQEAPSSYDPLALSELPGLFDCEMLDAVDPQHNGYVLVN

[6] = target: T3, Serine/threonine-protein kinase 3 (Homo sapiens, UniProt Q13188); test: Inhibition of MST2 (unknown origin) expressed in HEK293T cells using NanoGlo as substrate incubated for 20 hrs by NanoBRET assay; type: cell-based
T3 sequence (Q13188 whole entry): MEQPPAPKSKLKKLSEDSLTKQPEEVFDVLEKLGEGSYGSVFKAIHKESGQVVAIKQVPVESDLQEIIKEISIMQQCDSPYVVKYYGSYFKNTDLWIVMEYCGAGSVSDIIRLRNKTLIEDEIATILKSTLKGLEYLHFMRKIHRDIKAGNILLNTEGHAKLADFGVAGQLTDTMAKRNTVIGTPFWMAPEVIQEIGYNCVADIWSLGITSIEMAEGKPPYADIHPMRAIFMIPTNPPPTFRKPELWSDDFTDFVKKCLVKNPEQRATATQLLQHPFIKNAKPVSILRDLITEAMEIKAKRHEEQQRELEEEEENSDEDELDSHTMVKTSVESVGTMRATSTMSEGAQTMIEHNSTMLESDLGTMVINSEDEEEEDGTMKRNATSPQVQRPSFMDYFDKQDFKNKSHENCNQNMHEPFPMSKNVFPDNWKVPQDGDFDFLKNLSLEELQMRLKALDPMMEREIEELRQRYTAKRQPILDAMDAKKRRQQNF

[7] = target: T1, Serine/threonine-protein kinase 24; test: Binding affinity to recombinant MST3 (unknown origin) assessed as change in melting temperature by DSF analysis
Target sequence in this assay (Q9Y6E0 whole entry, looked up): as the sequence (Q9Y6E0 whole entry) above

HCT-116 [8] = test: Induction of apoptosis in human HCT-116 cells assessed as increase in fluorescence intensity at 10 uM incubated for 24 hrs by Hoechst33342 staining based analysis; type: functional, cell-based
[9] = target: T4, Serine/threonine-protein kinase 4 (Homo sapiens) (UniProt Q13043); test: Binding affinity to recombinant MST1 (unknown origin) assessed as change in melting temperature by DSF analysis
T4 sequence (whole entry): T2 sequence (Q13043 whole entry)

[10] = target: T5, Serine/threonine-protein kinase 26 (Homo sapiens, UniProt Q9P289); test: Binding affinity to recombinant MST4 (unknown origin) assessed as change in melting temperature by DSF analysis
Target sequence in this assay (Q9P289 2-416 limits assumed): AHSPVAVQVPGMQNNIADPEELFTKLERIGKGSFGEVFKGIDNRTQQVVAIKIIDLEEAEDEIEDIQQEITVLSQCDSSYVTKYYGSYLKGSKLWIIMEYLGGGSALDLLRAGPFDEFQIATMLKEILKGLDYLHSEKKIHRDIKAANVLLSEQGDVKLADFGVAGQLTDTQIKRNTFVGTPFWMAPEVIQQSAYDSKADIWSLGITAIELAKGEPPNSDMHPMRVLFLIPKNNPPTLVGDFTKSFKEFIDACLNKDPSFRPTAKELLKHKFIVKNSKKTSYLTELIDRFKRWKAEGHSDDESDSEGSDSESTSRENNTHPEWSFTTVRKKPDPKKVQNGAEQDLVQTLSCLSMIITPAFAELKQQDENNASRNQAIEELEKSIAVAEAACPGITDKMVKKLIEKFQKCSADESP

[11] = target: T6, Serine/threonine-protein kinase 3 (Homo sapiens) (UniProt Q13188); test: Binding affinity to recombinant MST2 (unknown origin) assessed as change in melting temperature by DSF analysis
T6 sequence (whole entry): T3 sequence (Q13188 whole entry)

[12] = target: T5, Serine/threonine-protein kinase 26; test: Inhibition of MST4 (unknown origin) expressed in HEK293T cells using NanoGlo as substrate incubated for 20 hrs by NanoBRET assay; type: cell-based
Target sequence in this assay (Q9P289 whole entry): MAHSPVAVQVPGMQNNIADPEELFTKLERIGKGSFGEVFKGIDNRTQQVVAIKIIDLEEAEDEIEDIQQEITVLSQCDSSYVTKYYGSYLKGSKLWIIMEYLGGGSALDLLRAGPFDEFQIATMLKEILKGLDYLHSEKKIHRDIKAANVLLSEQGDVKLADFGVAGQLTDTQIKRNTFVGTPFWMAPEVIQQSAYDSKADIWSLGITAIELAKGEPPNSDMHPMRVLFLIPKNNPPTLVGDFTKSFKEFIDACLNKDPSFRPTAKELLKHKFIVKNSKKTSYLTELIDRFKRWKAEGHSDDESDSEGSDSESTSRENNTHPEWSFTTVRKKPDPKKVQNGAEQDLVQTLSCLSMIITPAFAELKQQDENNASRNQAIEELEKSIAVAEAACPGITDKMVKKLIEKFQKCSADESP

HCT-116 [13] = test: Induction of cell cycle arrest in human HCT-116 cells assessed as accumulation of cells at G1 phase at 10 uM incubated for 72 hrs by FUCCI based analysis; type: functional
[14] = target: Tyrosine-protein kinase Fes/Fps (Homo sapiens, UniProt P07332); test: Inhibition of FES (unknown origin) expressed in HEK293T cells using NanoGlo as substrate incubated for 20 hrs by NanoBRET assay; type: cell-based
Tyrosine-protein kinase Fes/Fps, sequence (P07332 whole entry): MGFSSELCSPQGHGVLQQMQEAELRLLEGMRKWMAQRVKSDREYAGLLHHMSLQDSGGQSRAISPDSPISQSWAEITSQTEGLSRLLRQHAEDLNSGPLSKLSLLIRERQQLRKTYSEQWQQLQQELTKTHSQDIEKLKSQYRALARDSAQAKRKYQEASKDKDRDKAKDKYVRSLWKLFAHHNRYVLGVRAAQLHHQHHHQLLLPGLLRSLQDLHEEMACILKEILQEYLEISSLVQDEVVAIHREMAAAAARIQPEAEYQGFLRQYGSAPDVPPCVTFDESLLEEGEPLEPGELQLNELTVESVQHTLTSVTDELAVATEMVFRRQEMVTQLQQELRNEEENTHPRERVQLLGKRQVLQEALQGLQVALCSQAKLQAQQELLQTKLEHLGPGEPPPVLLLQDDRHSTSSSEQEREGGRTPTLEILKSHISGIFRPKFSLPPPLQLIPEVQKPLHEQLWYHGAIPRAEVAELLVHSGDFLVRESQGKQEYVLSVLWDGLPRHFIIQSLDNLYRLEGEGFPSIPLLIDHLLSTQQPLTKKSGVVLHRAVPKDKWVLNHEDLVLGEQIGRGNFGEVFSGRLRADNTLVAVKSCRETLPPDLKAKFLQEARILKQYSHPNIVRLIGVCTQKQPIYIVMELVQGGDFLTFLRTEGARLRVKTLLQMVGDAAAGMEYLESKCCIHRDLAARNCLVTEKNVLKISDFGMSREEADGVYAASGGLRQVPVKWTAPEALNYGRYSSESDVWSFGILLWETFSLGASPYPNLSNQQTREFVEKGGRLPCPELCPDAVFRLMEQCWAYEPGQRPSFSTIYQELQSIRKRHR

HCT-116 [15] = test: Antiproliferative activity against human HCT-116 cells assessed as reduction in cell viability at 10 uM incubated for 6 to 72 hrs by Hoechst33342 staining based analysis; type: functional; settings: time 6-72 hrs
HCT-116 [16] = test: Induction of apoptosis in human HCT-116 cells assessed as effect on cell count at 1 uM incubated for 72 hrs by Hoechst33342 staining based analysis; type: functional
HCT-116 [17] = test: Antiproliferative activity against human HCT-116 cells assessed as reduction in cell viability at 10 uM incubated for 48 hrs by Hoechst33342 staining based analysis; type: functional
[18] = Microsomal stability in Sprague-Dawley rat liver microsome incubated for 1 hr by HPLC analysis; type: ADME; settings: liver microsomes, read-out: Stability
[19] = target: T7, Serine/threonine-protein kinase Nek2 (Homo sapiens, UniProt P51955); test: Inhibition of NEK2 (unknown origin) expressed in HEK293T cells using NanoGlo as substrate incubated for 20 hrs by NanoBRET assay; type: cell-based
T7 sequence (P51955 whole entry): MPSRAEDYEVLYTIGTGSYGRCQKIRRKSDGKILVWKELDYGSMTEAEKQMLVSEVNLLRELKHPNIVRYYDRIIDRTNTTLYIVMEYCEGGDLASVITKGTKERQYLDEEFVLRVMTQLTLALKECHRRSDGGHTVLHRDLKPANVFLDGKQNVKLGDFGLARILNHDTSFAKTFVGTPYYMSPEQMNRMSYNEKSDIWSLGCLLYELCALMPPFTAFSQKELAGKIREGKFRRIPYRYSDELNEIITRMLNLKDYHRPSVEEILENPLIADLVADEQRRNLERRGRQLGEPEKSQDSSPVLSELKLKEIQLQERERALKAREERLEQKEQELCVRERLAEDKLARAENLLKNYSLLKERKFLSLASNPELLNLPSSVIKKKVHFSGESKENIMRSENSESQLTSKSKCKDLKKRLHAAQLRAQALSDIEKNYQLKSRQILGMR

[20] = target: Casein kinase I isoform epsilon (Homo sapiens, UniProt P49674); test: Inhibition of CK1e (unknown origin) expressed in HEK293T cells using NanoGlo as substrate incubated for 20 hrs by NanoBRET assay; type: cell-based
Casein kinase I isoform epsilon, sequence (P49674 whole entry, canonical isoform): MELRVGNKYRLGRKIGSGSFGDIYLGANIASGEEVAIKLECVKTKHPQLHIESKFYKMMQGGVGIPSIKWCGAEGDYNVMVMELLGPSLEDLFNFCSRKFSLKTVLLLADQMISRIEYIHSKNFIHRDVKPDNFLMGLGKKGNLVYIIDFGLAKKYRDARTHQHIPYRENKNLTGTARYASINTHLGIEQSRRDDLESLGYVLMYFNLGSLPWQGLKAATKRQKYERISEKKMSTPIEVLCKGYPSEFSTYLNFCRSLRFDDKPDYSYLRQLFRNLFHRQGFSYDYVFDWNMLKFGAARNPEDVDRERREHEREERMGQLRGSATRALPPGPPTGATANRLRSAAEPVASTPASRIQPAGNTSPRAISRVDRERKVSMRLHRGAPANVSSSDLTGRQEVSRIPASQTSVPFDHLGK

HCT-116 [21] = test: Antiproliferative activity against human HCT-116 cells assessed as reduction in cell viability at 1 to 10 uM incubated for 24 hrs by Hoechst33342 staining based analysis; type: functional; settings: dose 1-10 µM
HCT-116 [22] = test: Induction of cell cycle arrest in human HCT-116 cells assessed as accumulation of cells at G2/M phase incubated for 72 hrs by FUCCI based analysis; type: functional; settings: dose 10.0 µM
HCT-116 [23] = test: Induction of apoptosis in human HCT-116 cells assessed as increase in cell count at 10 uM incubated for 48 hrs by Hoechst33342 staining based analysis; type: functional
HCT-116 [24] = test: Induction of apoptosis in human HCT-116 cells assessed as effect on cell count at 10 uM incubated for 72 hrs by Hoechst33342 staining based analysis; type: functional
[25] = target: T5, Serine/threonine-protein kinase 26; test: Inhibition of MST4 (unknown origin)
Target sequence in this assay (Q9P289 whole entry): as the sequence (Q9P289 whole entry) above

[26] = target: T1, Serine/threonine-protein kinase 24; test: Inhibition of MST3 (unknown origin)
Target sequence in this assay (Q9Y6E0 whole entry): as the sequence (Q9Y6E0 whole entry) above

[27] = target: T1, Serine/threonine-protein kinase 24; test: Inhibition of MST3 (unknown origin) expressed in HEK293T cells using NanoGlo as substrate incubated for 20 hrs by NanoBRET assay; type: cell-based
Target sequence in this assay (Q9Y6E0 whole entry): as above

[28] = target: T2, Serine/threonine-protein kinase 4
[29] = target: T3, Serine/threonine-protein kinase 3

EC50 [1] [nM]	ΔTm [2] [°C]	EC50 [3] [nM]	EC50 [4] [nM]	EC50 [5] [nM]	EC50 [6] [nM]	ΔTm [7] [°C]	ΔTm [9] [°C]	ΔTm [10] [°C]	ΔTm [11] [°C]	EC50 [12] [nM]	Compound	Activity (HCT-116 [15])	also measured
20	9.1	20	251	49	249	16.7	8.7	15.3	13.7	48	Cc1cccc(-c2ccc(-c3cc4cnc(Nc5ccc(CCCO)cc5)nc4n(CCCCN)c3=O)c(Cl)c2)n1		Activity (HCT-116 [8]): Active
27	4.1	55	5300	512	10200	11.6	3.6	10.6	5.9	115	Cc1cccc(-c2ccc(-c3cc4cnc(NCCCN5CCOCC5)nc4n(CCCCN)c3=O)c(Cl)c2)n1	inactive	Activity (HCT-116 [24]): Active; Activity (HCT-116 [8]): Active
56	3.6	178	15100	1300	16900	10.6	1.1	7.5	2.2	1100	Cc1cccc(-c2ccc(-c3cc4cnc(NCCCN5CCCC5=O)nc4n(CCCCN)c3=O)c(Cl)c2)n1	inactive	Activity (HCT-116 [13]): Active; Activity (HCT-116 [16]): Active; Activity (HCT-116 [17]): 30%
42	6.5	221	4100	99	2600	11.7	5.6	11.4	7.9	457	CNc1ncc2cc(-c3ccc(-c4cccc(C)n4)cc3Cl)c(=O)n(CCCCN)c2n1	inactive	Activity (HCT-116 [24]): Active; Activity (HCT-116 [8]): Active; EC50 [27]: 42 nM

Further lines, the compound ahead of its results:

Compound	EC50 [1] [nM]	ΔTm [2] [°C]	EC50 [3] [nM]	EC50 [4] [nM]	EC50 [5] [nM]	EC50 [6] [nM]	ΔTm [7] [°C]	ΔTm [9] [°C]	ΔTm [10] [°C]	ΔTm [11] [°C]	EC50 [12] [nM]	Activity (HCT-116 [15])	also measured
CNC(=O)c1nn(C)c2c1C(C)(C)Cc1cnc(Nc3ccc(N4CCN(C)CC4)cc3)nc1-2													Activity (HCT-116 [13]): Active
Cc1cccc(-c2ccc(-c3cc4cnc(NC(CO)CO)nc4n(CCCCN)c3=O)c(Cl)c2)n1	81	5.1	57	> 50000	7400	> 50000	10.6	2.1	8.1	4.6	583	inactive	EC50 [14]: > 50000 nM; Activity (HCT-116 [13]): Active; Activity (HCT-116 [16]): Active; Activity (HCT-116 [17]): 30%; remaining at 1 h [18]: 90%; EC50 [19]: > 5000 nM; EC50 [20]: 17600 nM; Activity (HCT-116 [21]): >90%
N#Cc1cccc(-c2c[nH]c3ncnc(N4CCOCC4)c23)c1												inactive	Activity (HCT-116 [22]): Dose-Dependent Effect; Activity (HCT-116 [23]): Active
COc1cc(N2CCOCC2)ccc1Nc1ncc2cc(-c3ccc(-c4cccc(C)n4)cc3Cl)c(=O)n(CCCCN)c2n1	115	5		2100	85	3100	11	4.6	9.2	7.5	1200		
CCS(=O)(=O)Nc1ccc2c(c1)/C(=C(/Nc1ccc(CN3CCCCC3)cc1)c1ccccc1)C(=O)N2 [HESPERADIN]													IC50 [25]: 6 nM; IC50 [26]: 10 nM
CN1C(=O)c2sccc2N(C)c2nc(Nc3ccc(S(N)(=O)=O)cc3)ncc21													IC50 [28]: 162 nM; IC50 [29]: 493 nM
CCOc1cc2ncc(C#N)c(Nc3ccc(OCc4ccccn4)c(Cl)c3)c2cc1NC(=O)/C=C/CN(C)C [NERATINIB]													IC50 [25]: 7 nM; IC50 [26]: 7 nM
CC(=O)NC1CCN(c2ncnc3[nH]cc(-c4cccc(Cl)c4)c23)CC1												inactive	
